Assay results taken from the NIST ThermoML archive (doi:10.1021/je800468h).
Values joined by “and” are separate entries in the source; they are usually repeats but may differ in a detail not shown here. Equal values may be shown once.

Assays:
[1] = xn = mol fraction of the nth substance listed; conditions: 298.15 K, 101 kPa, Liquid; for electrical conductivity: Alternating current cell with electrodes; for mass density: Vibrating tube method
[2] = 298.15 K, 101 kPa, Liquid; for electrical conductivity: Alternating current cell with electrodes; for mass density: Vibrating tube method

CCCCn1cc[n+](C)c1.F[B-](F)(F)F [1-butyl-3-methylimidazolium tetrafluoroborate] + ClCCl
[1], x1 = 1
Conditions	electrical conductivity [S/m]	mass density [kg/m3]
–	0.353	1202.19

CCn1cc[n+](C)c1.F[B-](F)(F)F [1-ethyl-3-methylimidazolium tetrafluoroborate] + O
[1]
Conditions	electrical conductivity [S/m]	mass density [kg/m3]
x1 = 0.004746	1.87	1007.69
x1 = 0.01001	3.26	1018.31
x1 = 0.02226	5.35	1040.22
x1 = 0.03637	6.81	1061.36
x1 = 0.05733	8.08	1087.31
x1 = 0.08102	8.84	1110.93
x1 = 0.115	9.24	1136.45
x1 = 0.174	9.08	1168.6
x1 = 0.2564	8.13	1198.61
x1 = 0.419	5.99	1233.28
x1 = 1	1.55	1283.7

CCn1cc[n+](C)c1.F[B-](F)(F)F [1-ethyl-3-methylimidazolium tetrafluoroborate] + CC#N
[1]
Conditions	electrical conductivity [S/m]	mass density
x1 = 0.008411	1.58	791.26 kg/m3
x1 = 0.01082	1.9	795.48 kg/m3
x1 = 0.01528	2.46	802.59 kg/m3
x1 = 0.01646	2.55	804.68 kg/m3
x1 = 0.02252	3.13	814.3 kg/m3
x1 = 0.02253	3.14	813.87 kg/m3
x1 = 0.04929	4.89	853.38 kg/m3
x1 = 0.04942	4.94	854.17 kg/m3
x1 = 0.08059	6.03	893.87 kg/m3
x1 = 0.1007	6.5	916.26 kg/m3
x1 = 0.1218	6.72	939.88 kg/m3
x1 = 0.1433	6.94	960.07 kg/m3
x1 = 0.1736	6.92	988.57 kg/m3
x1 = 0.2043	6.91	1012.5 kg/m3
x1 = 0.2371	6.65	1038.16 kg/m3
x1 = 0.2778	6.41	1063.36 kg/m3
x1 = 0.3264	5.9	1093.25 kg/m3
x1 = 0.384	5.41	1120.11 kg/m3
x1 = 0.4565	4.64	1153.25 kg/m3
x1 = 0.4888	4.44	1163.04 kg/m3
x1 = 0.6478	3.2	1211.72 kg/m3
x1 = 0.652	3.1	1215.55 kg/m3
x1 = 0.759	2.54	1237.95 kg/m3
x1 = 0.8336	2.11	1255.87 kg/m3
x1 = 0.8902	1.95	1263.01 kg/m3
x1 = 1	1.55	1283.7 kg/m3 and 1280.38 kg/m3

CCCCn1cc[n+](C)c1.F[B-](F)(F)F [1-butyl-3-methylimidazolium tetrafluoroborate] + C[S+](C)[O-]
[1]
Conditions	electrical conductivity [S/m]	mass density [kg/m3]
x1 = 0.01925	0.687	1101.56
x1 = 0.03427	1.029	1106.21
x1 = 0.07837	1.56	1117.8
x1 = 0.1247	1.715	1128.31
x1 = 0.1866	1.67	1139.5
x1 = 0.2554	1.502	1150.71
x1 = 0.3251	1.31	1159.4
x1 = 0.4423	1.015	1171.71
x1 = 0.5246	0.854	1178.2
x1 = 0.6132	0.711	1184.27
x1 = 0.7494	0.543	1192.13

CCn1cc[n+](C)c1.F[B-](F)(F)F [1-ethyl-3-methylimidazolium tetrafluoroborate]
[2]
Conditions	electrical conductivity [S/m]	mass density
–	1.55	1283.7 kg/m3 and 1283.7 kg/m3 and 1280.38 kg/m3

CCCCn1cc[n+](C)c1.N#CN=C=[N-] [1-butyl-3-methylimidazolium dicyanamide]
[2]
Conditions	electrical conductivity [S/m]	mass density [kg/m3]
–	1.139	1059.12

CCCCn1cc[n+](C)c1.F[P-](F)(F)(F)(F)F [1-butyl-3-methylimidazolium hexafluorophosphate] + CC#N
[1]
Conditions	electrical conductivity [S/m]	mass density [kg/m3]
x1 = 0.007571	1.49	795.63
x1 = 0.01576	2.54	815.17
x1 = 0.02489	3.39	835.56
x1 = 0.03448	4.05	855.89
x1 = 0.05838	5	901.77
x1 = 0.08779	5.39	950.71
x1 = 0.1261	5.27	1004.47
x1 = 0.1772	4.68	1062.7
x1 = 0.2521	3.63	1128.61
x1 = 0.3649	2.3	1199.71
x1 = 0.5591	0.995	1278.14
x1 = 0.7291	0.469	1321.97
x1 = 0.8729	0.253	1349.76
x1 = 1	0.147	1368.32

CCCCCCn1cc[n+](C)c1.F[B-](F)(F)F [1-hexyl-3-methylimidazolium tetrafluoroborate]
[2]
Conditions	electrical conductivity [S/m]	mass density [kg/m3]
–	0.1228	1146.34

CCCCn1cc[n+](C)c1.F[B-](F)(F)F [1-butyl-3-methylimidazolium tetrafluoroborate]
[2]
Conditions	electrical conductivity [S/m]	mass density [kg/m3]
–	0.353	1202.19

CCCCn1cc[n+](C)c1.F[B-](F)(F)F [1-butyl-3-methylimidazolium tetrafluoroborate] + CO
[1]
Conditions	electrical conductivity [S/m]	mass density [kg/m3]
x1 = 0.007409	0.867	802.48
x1 = 0.01543	1.45	818.28
x1 = 0.02435	1.97	834.29
x1 = 0.03355	2.4	849.76
x1 = 0.05717	3.3	885.02
x1 = 0.08589	3.81	921.13
x1 = 0.1242	4.18	961.01
x1 = 0.1755	4.26	1002.48
x1 = 0.248	3.92	1046.31
x1 = 0.3624	3.09	1094.85
x1 = 0.5583	1.76	1145.28
